Patent US9024041B2, “P38 MAP kinase inhibitors” (Respivert Ltd., priority 2010, dated 2015)
pEC50, pIC50: −log10 of the molar value. Entries after “also recorded” stand apart in the source; their conditions may differ. Marks after values point to notes of the source that are not given here.

Columns and labels:
[1] = system: LPS-induced IL-8 release in d-U937 cells; experiment: LPS-induced IL-8 release in d-U937 cells; type: cell-based; settings: Homo sapiens, dU937, 0.1 μg/mL LPS, 4 hr
Method in brief: (§1)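 U937 cells differentiated with PMA (100 ng/mL, 48–72 hr), pre-incubated with compound 2 hr, then stimulated with 0.1 μg/mL E. coli O111:B4 LPS for 4 hr. Supernatant TNFα and IL-8 measured by sandwich ELISA; REC50 (TNFα) and IC50 (IL-8 inhibition vs vehicle) taken from concentration-response curves.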

[2] = system: LPS-induced TNFα release in d-U937 cells; experiment: LPS-induced TNFα release in d-U937 cells; type: cell-based; settings: Homo sapiens, dU937, 4 h; read-out: LPS/TNFα REC50 d-U937
Method in brief: as §1

[3] = system: LPS-induced neutrophil accumulation in Balb/c mice; experiment: LPS-induced neutrophil accumulation in mice; type: in vivo; settings: for % inhibition of Influx / Neutrophil numbers in BAL / % inhibition (neutrophil numbers in BAL): 0.2 mg/mL intra tracheal; for inhibitory effects versus neutrophil accumulation into the BALF (in words): dosed 8 hr prior to LPS challenge
Description: LPS-Induced Neutrophil Accumulation in Mice
Non-fasted Balb/c mice were dosed by the intra tracheal route with either vehicle, or the test substance at the indicated times (within the range 2-12 hr) before stimulation of the inflammatory response by application of an LPS challenge. At T=0, mice were placed into an exposure chamber and exposed to LPS. After a further 8 hr the animals were anesthetized, their tracheas cannulated and BALF extracted by infusing and then withdrawing from their lungs 1.0 mL of PBS via the tracheal catheter. Total and differential white cell counts in the BALF samples were measured using a Neubaur haemocytometer. Cytospin smears of the BALF samples were prepared by centrifugation at 200 rpm for 5 min at RT and stained using a DiffQuik stain system (Dade Behring). Cells were counted using oil immersion microscopy.

[4] = system: LPS-induced TNFα release in THP-1 cells; experiment: LPS-induced TNFα release in THP-1 cells; type: cell-based; settings: Homo sapiens, 3 μg/mL LPS, 4 hr
Method in brief: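 Human monocytic cells were stimulated with 3 μg/mL E. coli LPS for 4 hr. Supernatant TNFα was measured by sandwich ELISA. Inhibition was taken relative to vehicle control, and IC50 derived from the concentration-response curve.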

[5] = system: Differentiated U937 cells; experiment: MTT assay: cell viability on exposure to test compounds; type: cell-based, human; settings: percentage loss of cell viability vs vehicle; for MTT Assay (Viability) 4 h d-U937: 5% FCS; for MTT Assay (Viability) 24 h d-U937: 10% FCS
Method in brief: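 Differentiated U937 cells were pre-incubated with compound for either 4 h in 5% FCS or 24 h in 10% FCS, then given MTT for 1 h. Formazan was dissolved in DMSO and read at 550 nm. Viability loss is expressed as % versus 0.5% DMSO vehicle, so an apparent gain appears as a negative value.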

[6] = target: T1, p38 MAPKα isoform (MAPK14: Invitrogen) (Homo sapiens, UniProt Q16539); experiment: p38 MAPKα enzyme inhibition assay (FRET, Z-LYTE, via MAPKAP-K2 activation); type: biochemical; settings: 2 hr pre-incubation, ATP 10.0 μM; read-out: Enzyme Inhibition IC50 p38α
T1 construct: purchased Invitrogen
Description: The enzyme inhibitory activities of compounds disclosed herein were determined by fluorescence resonance energy transfer (FRET) using synthetic peptides labelled with both donor and acceptor fluorophores (Z-LYTE, Invitrogen Ltd., Paisley, UK). Recombinant, phosphorylated p38 MAPKγ (MAPK12:Invitrogen) was diluted in HEPES buffer, mixed with the test compound at the desired final concentrations and incubated for 2 hr at RT. The FRET peptide (2 μM) and ATP (100 μM) were added to the enzyme/compound mixture and incubated for 1 hr. Development reagent (protease) was added for 1 hr prior to detection in a fluorescence microplate reader (Varioskan® Flash, ThermoFisher Scientific). The site-specific protease cleaves non-phosphorylated peptide only and eliminates the FRET signal. Phosphorylation levels of each reaction were calculated using the ratio of coumarin emission (donor) over fluorescein emission (acceptor) for which high ratios indicate high phosphorylation and low ratios indicate low phosphorylation levels.
For the p38 MAPKα isoform (MAPK14: Invitrogen), enzyme activity was evaluated indirectly by determining the level of activation/phosphorylation of the down-stream molecule, MAPKAP-K2. The p38 MAPKα protein was mixed with the test compound for 2 hr at RT. […] Development reagent was then added and the mixture incubated for 1 hr before detection by fluorescence completed the assay protocol.

[7] = system: Poly I:C-induced ICAM-1 expression in BEAS2B cells; experiment: Poly I:C-induced ICAM-1 induction in BEAS2B cells; type: cell-based; settings: Homo sapiens, BEAS-2B, poly I:C 1 μg/mL, 18 hr, read-out: PolyI:C/ICAM1 IC50 BEAS2B
Method in brief: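 Human bronchial epithelial BEAS2B cells were pre-incubated with compound for 2 h, then transfected with poly I:C at 1 μg/mL. Surface ICAM-1 was measured 18 h later by cell-based ELISA (OD450–655), normalised to crystal-violet cell number (OD595). IC50 was taken from the concentration–response curve against vehicle.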

[8] = target: T2, Recombinant, phosphorylated p38 MAPKγ (MAPK12:Invitrogen) (Homo sapiens, UniProt P53778); experiment: p38 MAPKγ enzyme inhibition assay (FRET, Z-LYTE); type: biochemical; settings: 2 hr pre-incubation, ATP 100 μM; read-out: Enzyme Inhibition IC50 p38γ
T2 construct: purchased Invitrogen
T2 sequence (P53778 1-367): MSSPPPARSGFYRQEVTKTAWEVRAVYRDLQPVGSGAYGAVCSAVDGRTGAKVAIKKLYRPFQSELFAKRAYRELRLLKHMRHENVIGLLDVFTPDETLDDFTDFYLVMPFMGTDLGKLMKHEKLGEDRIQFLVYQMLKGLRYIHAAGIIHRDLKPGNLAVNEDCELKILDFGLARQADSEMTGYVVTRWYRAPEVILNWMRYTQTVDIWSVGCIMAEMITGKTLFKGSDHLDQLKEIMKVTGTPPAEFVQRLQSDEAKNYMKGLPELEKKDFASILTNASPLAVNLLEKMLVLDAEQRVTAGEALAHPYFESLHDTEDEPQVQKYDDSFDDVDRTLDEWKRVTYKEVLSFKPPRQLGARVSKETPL

T1 sequence (Q16539 whole entry, canonical isoform): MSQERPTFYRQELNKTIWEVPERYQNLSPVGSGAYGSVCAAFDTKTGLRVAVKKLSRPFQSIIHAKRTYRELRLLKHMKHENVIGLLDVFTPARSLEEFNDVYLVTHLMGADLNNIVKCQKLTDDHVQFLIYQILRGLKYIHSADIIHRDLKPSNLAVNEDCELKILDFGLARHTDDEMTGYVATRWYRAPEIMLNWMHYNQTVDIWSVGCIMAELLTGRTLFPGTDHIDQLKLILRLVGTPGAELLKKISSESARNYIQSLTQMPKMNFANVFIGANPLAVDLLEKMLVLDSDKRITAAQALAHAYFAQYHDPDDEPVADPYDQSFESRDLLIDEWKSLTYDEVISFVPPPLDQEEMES

| SMILES | pIC50 [1] | pEC50 [2] | pIC50 [4] | pIC50 [6] | pIC50 [8] | % inhibition of Influx ([3]; 8 h pre-dose before LPS) [%] | Neutrophil numbers in BAL ([3]; 8 h pre-dose before LPS) | inhibitory effects versus neutrophil accumulation into the BALF (in words) [3] | MTT Assay (Viability) 4 h d-U937 ([5]; 1 μg/mL) [%] | MTT Assay (Viability) 24 h d-U937 ([5]; 1 μg/mL) [%] | pIC50 [7] | % inhibition (neutrophil numbers in BAL) ([3]; 2 hr pre-dose before LPS) [%] | Neutrophil numbers in BAL ([3]; 2 hr pre-dose before LPS) | % inhibition (neutrophil numbers in BAL) ([3]; 12 h pre-dose before LPS) [%] | Neutrophil numbers in BAL ([3]; 12 h pre-dose before LPS) | inhibition of neutrophil accumulation into the BALF (in words) ([3]; administered 2 and 12 hr prior to LPS challenge) | MTT Assay (Viability) 4 h d-U937 ([5]; 10 μg/mL) | MTT Assay (Viability) 24 h d-U937 ([5]; 10 μg/mL) |
| --- | --- | --- | --- | --- | --- | --- | --- | --- | --- | --- | --- | --- | --- | --- | --- | --- | --- | --- |
| COCC(=O)Nc1cc(Oc2ccc(NC(=O)Nc3cc(C(C)(C)C)nn3-c3ccc(CO)c(Cl)c3)c3ccccc23)ccn1 [Example 13, N-(4-(4-(3-(3-tert-Butyl-1-(3-chloro-4-(hydroxymethyl)phenyl)-1H-pyrazol-5-yl)ureido)naphthalen-1-yloxy)pyridin-2-yl)-2-methoxyacetamide] | 8.07 | 10.52 | 8.89 | 7.97 | 6.77 | 43 | 9.9 ± 1.2 × 10^5/mL | inhibitory effects; also recorded: particularly marked | −28.5 | 27.0 | 8.64 |  |  |  |  |  |  |  |
| CN(C)C(=O)Nc1cc(Oc2ccc(NC(=O)Nc3cc(C(C)(C)C)nn3-c3ccc(O)cc3)c3ccccc23)ccn1 [Example 34, 3-(4-(4-(3-(3-tert-butyl-1-(4-hydroxyphenyl)-1H-pyrazol-5-yl)ureido)naphthalen-1-yloxy)pyridin-2-yl)-1,1-dimethylurea] | 8.72 |  | 8.82 | 8.70 | 7.05 | 14 | 12.0 ± 1.7 × 10^5/mL | inhibitory effects | −25.8 | −43.4 | 8.36 |  |  |  |  |  |  |  |
| CC(C)(C)c1cc(NC(=O)Nc2ccc(Oc3ccnc(NC(N)=O)c3)c3ccccc23)n(-c2ccc(S(C)(=O)=O)cc2)n1 [Example 45, 1-(3-tert-butyl-1-(4-(methylsulfonyl)phenyl)-1H-pyrazol-5-yl)-3-(4-((2-ureidopyridin-4-yl)oxy)naphthalen-1-yl)urea] | 9.30 | 9.52 | 8.66 | 7.72 | 7.31 | 24 | 13.2 ± 2.2 × 10^5/mL | inhibitory effects | −14.4 | 13.9 | 7.51 |  |  |  |  |  |  |  |

More lines, in order of rising pIC50 [1], values ahead:

| pIC50 [1] | pEC50 [2] | pIC50 [4] | pIC50 [6] | pIC50 [8] | SMILES | % inhibition of Influx ([3]; 8 h pre-dose before LPS) [%] | Neutrophil numbers in BAL ([3]; 8 h pre-dose before LPS) | inhibitory effects versus neutrophil accumulation into the BALF (in words) [3] | MTT Assay (Viability) 4 h d-U937 ([5]; 1 μg/mL) [%] | MTT Assay (Viability) 24 h d-U937 ([5]; 1 μg/mL) [%] | pIC50 [7] | % inhibition (neutrophil numbers in BAL) ([3]; 2 hr pre-dose before LPS) [%] | Neutrophil numbers in BAL ([3]; 2 hr pre-dose before LPS) | % inhibition (neutrophil numbers in BAL) ([3]; 12 h pre-dose before LPS) [%] | Neutrophil numbers in BAL ([3]; 12 h pre-dose before LPS) | inhibition of neutrophil accumulation into the BALF (in words) ([3]; administered 2 and 12 hr prior to LPS challenge) | MTT Assay (Viability) 4 h d-U937 ([5]; 10 μg/mL) | MTT Assay (Viability) 24 h d-U937 ([5]; 10 μg/mL) |
| --- | --- | --- | --- | --- | --- | --- | --- | --- | --- | --- | --- | --- | --- | --- | --- | --- | --- | --- |
| 7.53 | 8.92 | 8.92 | 8.35 | 7.27 | COCC(=O)Nc1cc(Oc2ccc(NC(=O)Nc3cc(C(C)(C)C)nn3-c3ccc(OC)nc3)c3ccccc23)ccn1 [Example 16, N-(4-(4-(3-(3-tert-Butyl-1-(6-methoxypyridin-3-yl)-1H-pyrazol-5-yl)ureido)naphthalen-1-yloxy)pyridin-2-yl)-2-methoxyacetamide] | 55 | 6.3 ± 1.2 × 10^5/mL | inhibitory effects; also recorded: particularly marked | −16.7 | −6.2 | 8.09 |  |  |  |  |  |  |  |
| 7.66 | 7.75 | 8.19 | 7.73 | 6.35 | CCNC(=O)Nc1cc(C(=O)c2ccc(NC(=O)Nc3cc(C(C)(C)C)nn3-c3ccc(C)cc3)c3ccccc23)ccn1 [Example 67, 1-(3-tert-butyl-1-p-tolyl-1H-pyrazol-5-yl)-3-(4-(2-(3-ethylureido)isonicotinoyl)naphthalen-1-yl)urea] |  |  |  |  |  | 7.86 | 40 | 10.5 ± 1.5 × 10^5/ml | 20 | 14.2 ± 1.7 × 10^5/ml | marked and long-lasting inhibition | −9.9^b % | 8.8^b % |
